Assay results published in patent US6583309B1 (University of Medicine and Dentistry of New Jersey, priority 1999, dated 2003).

Each compound was assayed against TAR RNA (assay: In vitro binding of resin-bound compounds to TAR RNA (OD260 of unbound RNA)). Settings: in vitro assay; compounds of formula I on TentaGel beads incubated with TAR RNA overnight at 4° C. in TK buffer; read-out: Kd (nM), binding constants.
Set-up: species or system HIV
Protocol: Binding of compounds of formula I and V to TAR RNA was measured by evaluating their inhibition of TAR-TAT complex formation in the presence of increasing levels of the compound to be tested. The compounds of formula I were tested in an in vitro assay; the compounds of formula V were tested in an in vivo assay.
The TAR RNA used corresponds to the minimal sequence required for TAT responsiveness in vivo. This 29-residue oligonucleotide has the sequence: 5′-[…]-3′ (SEQ ID NO.: 1). TAR RNA was prepared by in vitro transcription. A “top strand” single-stranded DNA oligomer having the sequence 5′-TAATACGACTCACTATAG-3′ (SEQ ID NO.: 2) was annealed to a “bottom strand” single-stranded DNA template having the following sequence: 3′-[…]-5′ (SEQ ID NO.: 3), thereby generating a double-stranded region corresponding to a promoter sequence recognized by T7 RNA polymerase. Transcription was carried out in transcription buffer (40 mM Tris-HCl, pH 8.1, 1 mM spermidine, 0.01% Triton®X-100, 5 mM dithiothreitol, 4 mM each of ATP, GTP, CTP, and UTP at 37° C. for 4 to 5 hours. Reactions were performed in a volume of 0.02 ml containing 8 pmole of template (top strand annealed to bottom strand) and 40 to 60 units of T7 RNA polymerase. Transcription was terminated by adding an equal volume of loading buffer (9M urea, 1 mmol EDTA, 0.1M bromophenol blue in 1XTBE buffer; TBE is 45 mmol trisborate at pH 8). Product RNA was purified by electrophoresis through a denaturing 20% polyacrylamide gel containing 8M urea. RNA was extracted from the gel, precipitated, dissolved in dithylpyrocarbonate-treated water, and stored at −20° C. until used.
In vitro assay conditions: Compounds AA-DU were synthesized on TentaGel S—NH2 (4.6 mmole). All Fmoc-amino acids were purchased from Bachem (Torrance, Calif.). 1-hydroxybenzotriazole (HOBT) and diisopropylcarbodiimide (DIPCDI) were obtained from Aldrich Chemical Co., Milwalkee, Wis. Piperidine and trifluoroacetic acid were purchased from Applied Biosystems Division, Perkin-Elmer. Compounds AA-DU were synthesized manually according to standard solid-phase peptide synthesis protocols. Coupling efficiencies of residues at each step were monitored by Kaiser test. Deprotection of trimer peptides was carried out in 10% water in trifluoroacetic acid (1 mL) for 16 hours at room temperature. After filtration of solvents, the resin was washed with water (1 mL×4), DMF (1 mL×4), dichloromethane (1 mL×4), and dried under reduced pressure. The compounds attached to the resin (10 beads) were placed in an Eppendorf tube and washed with TK buffer ([…]). The beads were suspended in TK buffer ([…]) and incubated with TAR RNA ([…]) overnight at 4° C. The suspension was centrifuged and the supernatant containing unbound RNA was transferred to a cuvette for OD260 measurements. The UV absorbance was measured by a Shimadzu UV-1601 spectrometer. Equilibrium concentrations of RNA were determined from these measurements. Given that the initial concentrations of ligand and RNA are known, and assuming simple bimolecular receptor/substrate binding, dissociation constant (KD) was calculated from straightforward equations.

NCCCCCNCC(=O)N[C@@H](CCCCN)COC(=O)N[C@@H](CCCCN)COC(N)=O [Compound CN, Carbamic acid 6-amino-2-{6-amino-2-[2-(5-amino-pentylamino)-acetylamino]-hexyloxycarbonylamino}-hexyl ester] and NCCCCCNCC(=O)N[C@@H](CCCCN)COC(=O)N[C@H](CCCCN)COC(N)=O [Compound AN, Carbamic acid 6-amino-2-{6-amino-2-[2-(5-amino-pentylamino)-acetylamino]-hexyloxycarbonylamino}-hexyl ester] are within 1.5-fold of each other in Kd: 235 nM for the first, 183 nM for the second.

NCCCC[C@H](N)COC(=O)N(CCCCN)CC(=O)N[C@H](CCCCN)COC(N)=O (stereo in doubt) [Compound AS, Carbamic acid 6-amino-2-{2-[(4-amino-butyl)-(2,6-diamino-hexyloxycarbonyl)-amino]-acetylamino}-hexyl ester] and NCCCC[C@@H](N)COC(=O)N(CCCCN)CC(=O)N[C@@H](CCCCN)COC(N)=O [Compound CT, Carbamic acid 6-amino-2-{2-[(4-amino-butyl)-(2,6-diamino-hexyloxycarbonyl)-amino]-acetylamino}-hexyl ester] are the same in Kd: 147 nM for the first, 147 nM for the second.

Compared with NCCCC[C@H](COC(N)=O)NC(=O)OC[C@@H](CCCCN)NC(=O)[C@H](N)CCCCN [Compound AD, Carbamic acid 6-amino-2-[6-amino-2-(2,6-diamino-hexanoylamino)-hexyloxycarbonylamino]-hexyl ester], NCCCC[C@@H](COC(N)=O)NC(=O)OC[C@@H](CCCCN)NC(=O)[C@H](N)CCCCN (stereo in doubt) [Compound CD, Carbamic acid 6-amino-2-[6-amino-2-(2,6-diamino-hexanoylamino)-hexyloxycarbonylamino]-hexyl ester] is 3.7-fold lower in Kd: 2080 nM for the first, 567 nM for the second.

N=C(N)NCCC[C@H](N)COC(=O)N(CCCCN)CC(=O)N[C@H](CCCCN)COC(N)=O [Compound AZ, Carbamic acid 6-amino-2-{2-[(4-amino-butyl)-(2-amino-5-guanidino-pentyloxycarbonyl)-amino]-acetylamino}-hexyl ester] and N=C(N)NCCC[C@H](N)COC(=O)N(CCCCN)CC(=O)N[C@@H](CCCCN)COC(N)=O [Compound CZ, Carbamic acid 6-amino-2-{2-[(4-amino-butyl)-(2-amino-5-guanidino-pentyloxycarbonyl)-amino]-acetylamino}-hexyl ester] are within 1.5-fold of each other in Kd: 147 nM for the first, 183 nM for the second.

NCCCC[C@H](COC(N)=O)NC(=O)[C@H](CCCCN)NC(=O)[C@@H](N)CCCCN (stereo in doubt) [Compound BV, Carbamic acid 6-amino-2-[6-amino-2-(2,6-diamino-hexanoylamino)-hexanoylamino]-hexyl ester] and NCCCC[C@@H](COC(N)=O)NC(=O)CN(CCCCN)C(=O)[C@H](N)CCCCN [Compound CV, Carbamic acid 6-amino-2-{2-[(4-amino-butyl)-(2,6-diamino-hexanoyl)-amino]-acetylamino}-hexyl ester] are within 1.5-fold of each other in Kd: 403 nM for the first, 567 nM for the second.

Compared with NCCCCCCCNCC(=O)N[C@@H](CCCCN)C(=O)N[C@H](CCCCN)COC(N)=O [Compound BY, Carbamic acid 6-amino-2-{6-amino-2-[2-(7-amino-heptylamino)-acetylamino]-hexanoylamino}-hexyl ester], NCCCCCCCN(CC(=O)N[C@@H](CCCCN)COC(N)=O)C(=O)CNCCCCCN [Compound DO, Carbamic acid 6-amino-2-(2-{(7-amino-heptyl)-[2-(5-amino-pentylamino)-acetyl]-amino}-acetylamino)-hexyl ester] is 5.7-fold higher in Kd: 183 nM for the first, 1040 nM for the second. The first binds more tightly here.

Going from NCCCC[C@@H](N)COC(=O)N[C@@H](CCCCN)COC(=O)N[C@H](CCCCN)COC(N)=O [Compound AK, Carbamic acid 6-amino-2-[6-amino-2-(2,6-diamino-hexyloxycarbonylamino)-hexyloxycarbonylamino]-hexyl ester] to NCCCC[C@@H](N)COC(=O)N[C@@H](CCCCN)COC(=O)N[C@@H](CCCCN)COC(N)=O [Compound CK, Carbamic acid 6-amino-2-[6-amino-2-(2,6-diamino-hexyloxycarbonylamino)-hexyloxycarbonylamino]-hexyl ester], the Kd falls from 1720 nM to 1110 nM (1.5-fold). The second binds more tightly here.

Going from NCCCCCN(CC(=O)N[C@@H](CCCCN)COC(N)=O)C(=O)OC[C@H](N)CCC(N)=O [Compound DJ, Carbamic acid 6-amino-2-{2-[(2-amino-4-carbamoyl-butoxycarbonyl)-(5-amino-pentyl)-amino]-acetylamino}-hexyl ester] to NCCCC[C@@H](COC(N)=O)NC(=O)CN(CCCCN)C(=O)OC[C@H](N)CCC(N)=O [Compound DA, Carbamic acid 6-amino-2-{2-[(4-amino-butyl)-(2-amino-4-carbamoyl-butoxycarbonyl)-amino]-acetylamino}-hexyl ester], the Kd falls from 603 nM to 301 nM (2-fold). The second binds more tightly here.

N=C(N)NCCC[C@H](N)COC(=O)N(CCCCCN)CC(=O)N[C@@H](CCCCN)COC(N)=O [Compound DI, Carbamic acid 6-amino-2-{2-[(2-amino-5-guanidino-pentyloxycarbonyl)-(5-amino-pentyl)-amino]-acetylamino}-hexyl ester] and N=C(N)NCCC[C@H](N)COC(=O)N(CCCCCN)CC(=O)N[C@H](CCCCN)COC(N)=O [Compound BI, Carbamic acid 6-amino-2-{2-[(2-amino-5guanidino-pentyloxycarbonyl)-(5-amino-pentyl)-amino]-acetylamino}-hexyl ester] are within 1.5-fold of each other in Kd: 235 nM for the first, 202 nM for the second.

Compared with NCCCCCN(CC(=O)N[C@@H](CCCCN)COC(N)=O)C(=O)OC[C@H](N)CCCCN [Compound DC, Carbamic acid 6-amino-2-{2-[(5-amino-pentyl)-(2,6-diamino-hexyloxycarbonyl)-amino]-acetylamino}-hexyl ester], NCCCCCCCN(CC(=O)N[C@@H](CCCCN)COC(N)=O)C(=O)OC[C@@H](N)CCCCN [Compound DK, Carbamic acid 6-amino-2-{2-[(7-amino-heptyl)-(2,6-diamino-hexyloxycarbonyl)-amino]-acetylamino}-hexyl ester] is 4.6-fold lower in Kd: 5110 nM for the first, 1110 nM for the second.

First: NCCCCCN(CC(=O)N[C@H](CCCCN)COC(N)=O)C(=O)CNCCCCN [Compound BH, Carbamic acid 6-amino-2-{2-[[2-(4-amino-butylamino)-acetyl]-(5-amino-pentyl)-amino]-acetylamino}-hexyl ester]
Second: NCCCCCCCN(CC(=O)N[C@@H](CCCCN)COC(N)=O)C(=O)OC[C@H](N)CCCCN [Compound DL, Carbamic acid 6-amino-2-{2-[(7-amino-heptyl)-(2,6-diamino-hexyloxycarbonyl)-amino]-acetylamino}-hexyl ester]
The Kd of the first is 3.7-fold higher: 2530 nM for the first, 678 nM for the second. The second binds more tightly here.

Compared with N=C(N)NCCC[C@H](N)COC(=O)N[C@@H](CCCCN)COC(=O)N[C@H](CCCCN)COC(N)=O [Compound AQ, Carbamic acid 6-amino-2-[6-amino-2-(2-amino-5-guanidino-pentyloxycarbonylamino)-hexyloxycarbonylamino]-hexyl ester], NCCCC[C@@H](N)COC(=O)N[C@H](CCCCN)COC(=O)N[C@@H](CCCCN)COC(N)=O [Compound CB, Carbamic acid 6-amino-2-[6-amino-2-(2,6-diamino-hexyloxycarbonylamino)-hexyloxycarbonylamino]-hexyl ester] is 3.4-fold lower in Kd: 2080 nM for the first, 603 nM for the second.

Compared with NCCCC[C@H](COC(N)=O)NC(=O)CN(CCCCN)C(=O)OC[C@H](N)CCC(N)=O [Compound BA, Carbamic acid 6-amino-2-{2-[(4-amino-butyl)-(2-amino-4-carbamoyl-butoxycarbonyl)-amino]-acetylamino}-hexyl ester], NCCCC[C@H](N)COC(=O)N[C@@H](CCCCN)COC(=O)N[C@@H](CCCCN)COC(N)=O (stereo in doubt) [Compound CJ, Carbamic acid 6-amino-2-[6-amino-2-(2,6-diamino-hexyloxycarbonylamino)-hexyloxycarbonylamino]-hexyl ester] is 2.7-fold higher in Kd: 460 nM for the first, 1260 nM for the second.
